Here are results for one compound from US20210145816A1, “PHARMACEUTICAL FORMULATION OF LONAFARNIB WITH A SULFOBUTYLETHER BETA-CYCLODEXTRIN” (Cyclolab Cyclodextrin Research and Development Laboratory …, priority 2019, published 2021).

Structures are written as SMILES. ≈ marks a conversion by molar mass, not a printed value.

Series [1] can be described thus: formulation of lonafarnib into a liquid vehicle with 2-hydroxypropyl beta cyclodextrin. Format: physicochemical. The conditions noted are these: 20% 2-hydroxypropyl beta cyclodextrin, lonafarnib 12 mg/ml. The procedure: A prior publication describing formulation of lonafarnib into a liquid vehicle with a cyclodextrin is known (Hernandez et al., Science Translational Medicine, 11, eaat3005 (2019)), but based on the disclosed data, even using high concentration (20%) of 2-hydroxypropyl beta cyclodextrin (hydroxypropyl betadex), a suspension of lonafarnib was obtained for the (pre)clinically relevant concentration of the drug (12 mg/ml). […] Consequently, present invention provides a significant formulation improvement over the teachings of said journal publication.

For series [2] the following is noted: water; cited from earlier work.
The conditions of series [3]: 20% 2-hydroxypropyl beta cyclodextrin, lonafarnib 12 mg/ml; cited from earlier work.

Regarding `NC(=O)N1CCC(CC(=O)N2CCC([C@H]3c4ncc(Br)cc4CCc4cc(Cl)cc(Br)c43)CC2)CC1` [Lonafarnib], the “physical state of liquid formulation obtained (experiment reproduced by Cyclolab Ltd.)” value in series [1] is listed as “rough suspension, unsuitable for parenteral application”. Besides, in series [2], the aqueous solubility was 0.8 µg/mL (≈ 1.25 µM). Further, in series [3], the “physical state of liquid formulation obtained (Hernandez et al. 2019)” value is recorded as “suspension”.
